Tests used:
Assay type in all cases: cell-based
COX-2 = COX-2 mRNA level in LPS-activated rat peritoneal macrophages (qRT-PCR); conditions: SIN 1 h, LPS 12 h
Protocol: (§1) Peritoneal macrophages were cultured in 6-well plates and pre-treated with the indicated concentration of SIN for 1 h, followed by LPS stimulation for another 12 h. RNA was isolated from rat peritoneal macrophages using the Nucleospin RNA kit from Macherey-Nagel (Duren, Germany) according to the manufacturer's instructions. RNA concentration derived from each sample was assessed by NanoDrop UV Spectrophotometer from Thermo Scientific (Asheville, N.C., USA). RNA (1 μg) was reverse transcripted using the transcriptor universal cDNA master reagents from Roche Applied Science (Mannheim, Germany). Gene expression quantification was performed by a high-productivity real-time quantitative PCR ViiA™ 7 machine using SYBR Green reagents from Roche Applied Science (Mannheim, Germany) according a standard protocol recommended by the manufacturer and the cycling parameters were as followed: uracil removal incubation (50° C., 2 min), polymerase activation (95° C., 10 min), 40 cycles of denaturation (95° C., 15 s) and annealing/extension (60° C., 30 s) and a melt curve stage (95° C., 15 s, 60° C., 1 min and 95° C., 15 s).
(§2) Rat primers used in the research are listed as follows:
(§3) • The levels of gene expression were quantitated using the 2(−Delta Delta C(T)) method. […]

mPGES-1 = mPGES-1 mRNA level in LPS-activated rat peritoneal macrophages (qRT-PCR); conditions: SIN 1 h, LPS 12 h
Protocol: as §1, §2, §3

TXA2 = TXA2 level in culture supernatants of LPS-activated rat peritoneal macrophages (ELISA); conditions: LPS-stimulated rat peritoneal macrophages, culture supernatant
Protocol: (§4) Sprague-Dawley (SD) rats from the University of Hong Kong were housed in cages with free access to food and water. Peritoneal macrophages of SD rats were isolated as described in Liu J. et al., Pharmacological research 2016, 111:303-315. Briefly, untreated rats were sacrificed and after laparotomy, about 50 ml cold sterile Hank's balanced salt solution (HBSS) was used to lavage the peritoneal cavity at twice, and then the peritoneal lavage fluid was collected and centrifuged at 1500 rpm for 10 min. The cell pellets was suspended at a density 1.5×10^6 cells/ml in pre-hearted DMEM medium with 10% heat-inactivated FBS, penicillin G (100 units/ml), streptomycin ([…]), and L-glutamine (2 mM), followed by seeding in 6-well plates at a density of 4.5×10^6 cells and incubation for 2 h. Then the medium were discarded to remove the non-adherent cells. The adherent cells were further washed for two times with pre-heated DMEM medium to remove floating cells. Next, cells were pre-treated with various concentration of SIN for 1 h, followed by stimulation with LPS (1 μg/ml).
(§5) RAW264.7 cells and rat peritoneal macrophages were seeded in a 96-well plate at density of 1.4×10^4 and 1.5×10^5 cells, respectively. […] The optical density was measured at 570 nm against a reference wavelength of 650 nm using a microplate UV/VIS spectrophotometer (Tecan, Mannedorf, Switzerland). […]

PGD2 = PGD2 level in culture supernatants of LPS-activated rat peritoneal macrophages (ELISA); conditions: LPS-stimulated rat peritoneal macrophages, culture supernatant
Protocol: as §4, §5

CEBPβ (mPGES-1 promoter) = assay: ChIP assay: CEBPβ DNA binding to mPGES-1 promoter in LPS-stimulated rat peritoneal macrophages; conditions: 640 μM SIN 1 h, 1 μg/ml LPS 30 min
Protocol: Rat peritoneal macrophages were pretreated with 640 μM SIN (1 h) and stimulated with 1 μg/ml LPS (30 min) before fixation at room temperature for 10 min with 1% formaldehyde. Fixation was terminated by adding glycine (to 0.125 M) with an additional incubation of 5 min, then the cells were washed twice with ice-cold PBS and harvested by scraping and centrifugation (1500 rpm for 10 min at 4° C.). Cell lysis was performed using ChIP kit from abcam (Cambridge, UK) according to the manufacturer's instructions. Briefly, cell pellets were resuspended in 1 ml Buffer B by pipetting up and down several times in a microcentrifuge tube and incubated at room temperature for 10 min. After centrifugation at 5000 rpm, the pellet was collected and resuspended in ice cold Buffer C and incubated on ice for 10 min, followed by centrifugation (5,000 rpm for 10 min at 4° C.). The pellet was mixed with 100 μl Buffer D containing protease inhibitors, incubated on ice for 10 min and sonicated for 30 cycles in a Bioruptor UCD-300 sonicator (power on high, 30 s on, 30 s off per cycle), yielding DNA fragments of 150-200 bps (the size of sonicated chromatin was checked through running 2% agarose gel). Beads were blocked overnight in PBS with 0.5% BSA and then added to the samples. […]

## COC1=C[C@@H]2[C@@H]3Cc4ccc(OC)c(O)c4[C@]2(CCN3C)CC1=O [SIN, sinomenine]
COX-2
  gene level of COX-2 (mRNA): did not suppress
mPGES-1
  mPGES-1 gene expression (mRNA): significantly and dose-dependently inhibited
TXA2
  level of TXA2: no significant influence
PGD2
  level of PGD2: no significant influence
CEBPβ (mPGES-1 promoter)
  DNA binding of CEBPβ to the mPGES-1 promoter: inhibited
